Among the data in ChEMBL document CHEMBL1132823, “Fatty acid amide hydrolase substrate specificity” (Bioorg Med Chem Lett, 2000) are Relative rate of hydrolysis values, retold here.

The experiment deals with T1, Fatty-acid amide hydrolase 1 (Rattus norvegicus) (UniProt P97612).
T1 sequence (whole entry): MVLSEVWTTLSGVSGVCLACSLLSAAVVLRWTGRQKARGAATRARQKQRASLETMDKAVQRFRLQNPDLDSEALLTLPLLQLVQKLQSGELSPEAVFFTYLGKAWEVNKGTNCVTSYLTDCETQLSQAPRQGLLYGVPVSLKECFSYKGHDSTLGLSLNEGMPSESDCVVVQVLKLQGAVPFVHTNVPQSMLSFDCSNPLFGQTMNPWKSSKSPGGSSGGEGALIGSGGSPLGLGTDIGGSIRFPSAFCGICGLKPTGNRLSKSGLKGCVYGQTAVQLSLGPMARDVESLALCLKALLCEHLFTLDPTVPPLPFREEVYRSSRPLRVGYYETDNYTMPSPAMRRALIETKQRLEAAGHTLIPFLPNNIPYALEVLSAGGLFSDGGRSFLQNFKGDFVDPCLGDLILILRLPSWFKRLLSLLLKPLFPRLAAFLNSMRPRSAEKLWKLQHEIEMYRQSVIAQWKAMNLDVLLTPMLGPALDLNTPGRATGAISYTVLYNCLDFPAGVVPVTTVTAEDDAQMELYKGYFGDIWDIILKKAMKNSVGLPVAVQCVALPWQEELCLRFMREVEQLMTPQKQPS
Put plainly: Relative rate of fatty acid amide hydrolase hydrolysis of compound compared to that of oleamide.

Turning to `CCCCCCCC/C=C/CCCCCCC(C)(C)C(N)=O`, the Relative rate of hydrolysis was 0.03.

Consider `CCCCCC/C=C\CCCCCCCCCCCC(N)=O`, for which the Relative rate of hydrolysis amounted to 1.03.

On to `CCCC/C=C\CCCCCCCCCCCC(N)=O`, for which the Relative rate of hydrolysis is 0.82.

As to `CCCCC/C=C\CCCCCCCCCCC(N)=O`, the Relative rate of hydrolysis was 0.92.

For the compound `CCCCCCCC/C=C/CCCCCCOC(N)=O`, the Relative rate of hydrolysis came to 0.1.

For the compound `CCCCC/C=C/C/C=C/CCCCCCCC(N)=O` (stereo in doubt; 22), the Relative rate of hydrolysis was 0.54.

`CC/C=C/C/C=C/C/C=C/CCCCCCCC(N)=O` gave a Relative rate of hydrolysis of 1.38.

In turn, `CCCCCCCCCCC/C=C\CCCCC(N)=O` had a Relative rate of hydrolysis of 0.91.

`CCCCCCCCCCCCCCCCCC(N)=O`: the Relative rate of hydrolysis worked out at 0.69.

Turning to `CCCCCCCC/C=C/CCCCCCCC(N)=O`, the Relative rate of hydrolysis is 0.52.

In turn, `CCCCCCCCCC/C=C\CCCCCC(N)=O` showed a Relative rate of hydrolysis of 1.09.

`CCCCC/C=C/C/C=C/CCCCCCCCCC(N)=O` showed a Relative rate of hydrolysis of 1.27.

Consider `CCCCCCCC/C=C\CCCCCCCC(N)=O`, for which the Relative rate of hydrolysis stood at 1.

On to `CCCCCCCC/C=C/CCCCCCC(C)C(N)=O` (configuration not stated), for which the Relative rate of hydrolysis is 0.07.

For `CCCCC/C=C/C/C=C/CCCCCCCC(N)=O` (stereo in doubt; 21), the Relative rate of hydrolysis is 1.04.

Compound `CCCCC/C=C/C/C=C/C/C=C/C/C=C/CCCC(N)=O` returned a Relative rate of hydrolysis of 3.11.

For `CCCCCCCC/C=C\CCCCCCCCCC(N)=O`, the Relative rate of hydrolysis turned out to be 1.05.

`CCCCCCCCCCCCCCCC(N)=O` registered a Relative rate of hydrolysis of 0.72.

With `CC/C=C/C/C=C/C/C=C/CCCCCCCCCC(N)=O`, the Relative rate of hydrolysis was determined as 1.4.

The compound `CC/C=C\CCCCCCCCCCCCCC(N)=O` had a Relative rate of hydrolysis of 0.9.

For `CCCCC/C=C\C/C=C\C/C=C\C/C=C\CCCC(=O)NCCO`, the Relative rate of hydrolysis is 1.68.

`CCCCCCCC/C=C/CCCCCCCCCCCC(N)=O` had a Relative rate of hydrolysis of 0.83.

`CCCCCC/C=C/CCCCCCCC(N)=O` showed a Relative rate of hydrolysis of 0.79.

Compound `CC/C=C/C/C=C/C/C=C/C/C=C/C/C=C/C/C=C/CCC(N)=O` had a Relative rate of hydrolysis of 0.82.

The compound `CCCCCCCCCCC/C=C\CCCCCCC(N)=O` yielded a Relative rate of hydrolysis of 1.12.

With `CCCCCCCC/C=C/CCCCCCNC(N)=O`, the Relative rate of hydrolysis is below 0.001.

In turn, `CCCCCCCCCCCCCC/C=C\CCCC(N)=O` gave a Relative rate of hydrolysis of 1.16.

In the case of `C1CCCCCCNCCCCC1`, the Relative rate of hydrolysis was 0.74.

`CCCCC/C=C/C/C=C/C/C=C/CCCCCCC(N)=O` came in with a Relative rate of hydrolysis of 1.38.

As for `CCCCCCCCCCCCCC(N)=O`, the Relative rate of hydrolysis worked out at 0.83.

As for `CCCCCCCC/C=C/CCCCCCCCCCCCCC(N)=O`, the Relative rate of hydrolysis is 0.82.

In the case of `CCCC/C=C/CCCCCCCC(N)=O`, the Relative rate of hydrolysis stood at 0.86.
